Where a name gives a salt, the structure may show the parent alone.
Tests used:
[1] = molecular target: T1, TLR8 (Homo sapiens, UniProt Q9NR97); experiment: HEK/293 TLR8 Cell Assay; assay type: cell-based; details: HEK cells, R848 agonist 30 uM final concentration, Steady-Glo readout; read-out: TLR8 potency
T1 construct: expressed in transfected cells; host or cells: HEK/293 reporter cells (NF-kB luciferase)
T1 sequence (Q9NR97 27-1041): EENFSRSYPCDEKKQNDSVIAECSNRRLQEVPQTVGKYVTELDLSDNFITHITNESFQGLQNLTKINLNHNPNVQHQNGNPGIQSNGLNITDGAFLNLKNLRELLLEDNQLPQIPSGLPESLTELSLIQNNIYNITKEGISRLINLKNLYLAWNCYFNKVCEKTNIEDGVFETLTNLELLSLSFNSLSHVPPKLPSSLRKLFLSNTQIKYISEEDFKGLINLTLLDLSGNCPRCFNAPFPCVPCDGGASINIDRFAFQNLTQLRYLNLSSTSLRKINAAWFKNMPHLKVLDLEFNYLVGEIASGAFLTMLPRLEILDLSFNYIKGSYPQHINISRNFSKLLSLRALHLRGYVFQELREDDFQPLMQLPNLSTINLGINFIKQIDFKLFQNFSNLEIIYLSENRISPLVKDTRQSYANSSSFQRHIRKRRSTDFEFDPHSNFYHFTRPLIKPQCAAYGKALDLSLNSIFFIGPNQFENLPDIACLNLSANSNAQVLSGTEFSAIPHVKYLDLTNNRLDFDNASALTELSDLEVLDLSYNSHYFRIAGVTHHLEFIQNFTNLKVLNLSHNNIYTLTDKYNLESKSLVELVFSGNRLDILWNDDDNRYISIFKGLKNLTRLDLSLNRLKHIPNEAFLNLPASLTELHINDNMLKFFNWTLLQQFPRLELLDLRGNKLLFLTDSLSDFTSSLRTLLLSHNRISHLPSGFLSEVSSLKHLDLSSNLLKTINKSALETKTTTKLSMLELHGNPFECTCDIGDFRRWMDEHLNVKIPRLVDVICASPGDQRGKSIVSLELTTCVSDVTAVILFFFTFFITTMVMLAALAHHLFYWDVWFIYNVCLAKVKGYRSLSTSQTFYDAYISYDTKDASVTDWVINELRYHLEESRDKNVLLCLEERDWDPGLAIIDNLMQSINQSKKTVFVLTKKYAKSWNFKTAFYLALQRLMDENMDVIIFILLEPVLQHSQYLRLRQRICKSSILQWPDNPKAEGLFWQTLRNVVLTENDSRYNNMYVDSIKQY

[2] = molecular target: T2, TLR7 (Homo sapiens, UniProt Q9NYK1); experiment: HEK/293 TLR7 Cell Assay; assay type: cell-based; details: TLR7/NFKb HEK cells, R848 agonist 10 uM final concentration, Steady-Glo readout; read-out: TLR7 potency
T2 construct: expressed in transfected cells; host or cells: HEK/293 cells carrying TLR7 and an NF-kB luciferase reporter
T2 sequence (Q9NYK1 27-1049): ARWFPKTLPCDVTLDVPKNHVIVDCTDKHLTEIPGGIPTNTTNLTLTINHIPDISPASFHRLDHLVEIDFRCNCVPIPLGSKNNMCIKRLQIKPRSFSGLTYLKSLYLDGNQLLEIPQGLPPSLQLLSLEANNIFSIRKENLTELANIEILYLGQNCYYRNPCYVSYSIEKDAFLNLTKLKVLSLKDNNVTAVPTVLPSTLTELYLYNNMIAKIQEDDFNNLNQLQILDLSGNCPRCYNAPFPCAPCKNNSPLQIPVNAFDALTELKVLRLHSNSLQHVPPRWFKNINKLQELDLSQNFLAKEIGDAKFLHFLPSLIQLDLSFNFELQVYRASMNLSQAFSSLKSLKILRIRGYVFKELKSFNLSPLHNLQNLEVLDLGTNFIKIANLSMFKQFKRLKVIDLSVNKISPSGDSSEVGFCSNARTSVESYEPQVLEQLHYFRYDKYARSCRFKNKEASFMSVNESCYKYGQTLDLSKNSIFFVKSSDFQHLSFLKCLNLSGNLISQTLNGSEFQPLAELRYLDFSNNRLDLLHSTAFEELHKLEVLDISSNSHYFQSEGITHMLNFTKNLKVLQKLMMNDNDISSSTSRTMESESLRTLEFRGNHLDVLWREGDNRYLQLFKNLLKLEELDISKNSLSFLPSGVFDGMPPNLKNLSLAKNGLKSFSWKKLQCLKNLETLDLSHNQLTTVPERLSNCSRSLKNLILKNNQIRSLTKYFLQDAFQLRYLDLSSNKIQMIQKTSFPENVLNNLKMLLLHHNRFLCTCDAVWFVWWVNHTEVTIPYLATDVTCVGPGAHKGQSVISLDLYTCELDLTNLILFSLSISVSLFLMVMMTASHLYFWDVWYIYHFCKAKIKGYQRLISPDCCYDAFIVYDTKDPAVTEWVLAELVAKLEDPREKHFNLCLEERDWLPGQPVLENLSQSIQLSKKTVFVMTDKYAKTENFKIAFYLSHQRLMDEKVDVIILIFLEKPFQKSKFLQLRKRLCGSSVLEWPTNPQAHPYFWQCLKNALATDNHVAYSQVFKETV
Procedure, shortened: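 Compounds added to HEK cells expressing TLR7 with an NFκB reporter 30 min ahead of 10 uM R848 challenge; luciferase signal (Steady-Glo) measured after 5 h, cells having been seeded 24 h earlier at 5000 per well.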

SMILES: O=C(N[C@@H]1C[C@H](C(F)(F)F)CN(c2ccc(C(F)(F)F)c3ncccc23)C1)[C@@H]1CCCN1 [Example 123, (2S)—N-[(3R,5S)-5-(trifluoromethyl)-1-[8-(trifluoromethyl)quinolin-5-yl]piperidin-3-yl]pyrrolidine-2-carboxamide]
- IC50 [1]: < 75 nM
- IC50 [2]: 75 to 150 nM

SMILES: C[C@@H]1CN(c2ccc(C(F)(F)F)c3ncccc23)C[C@H](CN2CCN(C)CC2)O1 [Example 330, 5-[(2R,6S)-2-Methyl-6-(4-methyl-piperazin-1-ylmethyl)-morpholin-4-yl]-8-trifluoromethyl-quinoline]
- IC50 [1]: < 75 nM
- IC50 [2]: < 75 nM

SMILES: O=C(CC1(F)CCNCC1)N[C@@H]1C[C@H](C(F)(F)F)CN(c2ccc(C(F)(F)F)c3ncccc23)C1 [Example 117, 2-(4-fluoropiperidin-4-yl)-N-[(3R,5S)-5-(trifluoromethyl)-1-[8-(trifluoromethyl)quinolin-5-yl]piperidin-3-yl]acetamide]
- IC50 [1]: < 75 nM
- IC50 [2]: < 75 nM

SMILES: C[C@@H]1CN(c2cnc(C#N)c3ncccc23)C[C@H](CNCC2(O)COC2)O1 [Example 378, 5-((2S,6R)-2-{[(3-Hydroxy-oxetan-3-ylmethyl)-amino]-methyl}-6-methyl-morpholin-4-yl)-[1,7]naphthyridine-8-carbonitrile]
- IC50 [1]: > 150 nM
- IC50 [2]: > 150 nM

SMILES: Cc1ccc(N2C[C@@H](C)C[C@@H](NC(=O)[C@@H]3CCCN3)C2)c2cccnc12 [Example 122, (2S)—N-[(3R,5S)-5-methyl-1-(8-methylquinolin-5-yl)piperidin-3-yl]pyrrolidine-2-carboxamide]
- IC50 [1]: < 75 nM
- IC50 [2]: > 150 nM

SMILES: C[C@H]1C[C@@H](NCC2CCS(=O)(=O)C2)CN(c2ccc(C#N)c3nccnc23)C1 (stereo partly drawn) [Example 42, 8-{(3R,5S)-3-[(1,1-Dioxo-tetrahydro-1lambda6-thiophen-3-ylmethyl)-amino]-5-methyl-piperidin-1-yl}-quinoxaline-5-carbonitrile]
- IC50 [1]: 75 to 150 nM
- IC50 [2]: 75 to 150 nM

SMILES: C[C@@H]1CN(c2ccc(C#N)c3nccnc23)C[C@H](CSC2CNC2)O1 [Example 225, 8-[(2R,6R)-2-(Azetidin-3-ylsulfanylmethyl)-6-methyl-morpholin-4-yl]-quinoxaline-5-carbonitrile hydrochloride]
- IC50 [1]: < 75 nM
- IC50 [2]: < 75 nM

SMILES: N#Cc1ccc(N2C[C@H](NC(=O)CO)C[C@H](C(F)(F)F)C2)c2cccnc12 [Example 62, N-[(3R,5S)-1-(8-Cyano-quinolin-5-yl)-5-trifluoromethyl-piperidin-3-yl]-2-hydroxy-acetamide]
- IC50 [1]: > 150 nM
- IC50 [2]: > 150 nM

SMILES: C[C@H]1C[C@@H](NS(=O)(=O)NC2CCN(C)CC2)CN(c2ccc(C(F)(F)F)c3ncccc23)C1 [Example 200, N-(1-methylpiperidin-4-yl){[(3R,5S)-5-methyl-1-[8-(trifluoromethyl)quinolin-5-yl]piperidin-3-yl]amino}sulfonamide]
- IC50 [1]: < 75 nM
- IC50 [2]: < 75 nM

SMILES: CC(=O)N1CCC(NC[C@H]2CN(c3cnc(C#N)c4ncccc34)C[C@@H](C)O2)CC1 [Example 381, 5-{(2S,6R)-2-[(1-Acetyl-piperidin-4-ylamino)-methyl]-6-methyl-morpholin-4-yl}-[1,7]naphthyridine-8-carbonitrile]
- IC50 [1]: > 150 nM
- IC50 [2]: > 150 nM

SMILES: C[C@H]1C[C@@H](NC(=O)N[C@@H]2CCCNC2)CN(c2ccc(C(F)(F)F)c3ncccc23)C1 [Example 146, 3-[(3R,5S)-5-methyl-1-[8-(trifluoromethyl)quinolin-5-yl]piperidin-3-yl]-1-[(3R)-piperidin-3-yl]urea]
- IC50 [1]: < 75 nM
- IC50 [2]: > 150 nM

SMILES: N#Cc1ccc(N2C[C@@H](C(F)(F)F)O[C@@H](C(=O)N[C@H]3CNC[C@H]3F)C2)c2nccnc12 (single isomer, unassigned) [Example 303]
- IC50 [1]: < 75 nM
- IC50 [2]: < 75 nM

SMILES: C[C@H]1C[C@@H](NCC(C)(C)O)CN(c2ccc(C#N)c3nccnc23)C1 [Example 16, 8-[(3R,5S)-3-(2-Hydroxy-2-methyl-propylamino)-5-methyl-piperidin-1-yl]-quinoxaline-5-carbonitrile formic acid]
- IC50 [1]: < 75 nM
- IC50 [2]: < 75 nM

SMILES: C[C@@H]1CN(c2cnc(C#N)c3ncccc23)C[C@H](C(=O)NC2CCC(N3CCOCC3)CC2)O1 (stereo partly drawn) [Example 277, (2R,6R)-4-(8-Cyano-[1,7]naphthyridin-5-yl)-6-methyl-morpholine-2-carboxylic acid (4-morpholin-4-yl-cyclohexyl)-amide]
- IC50 [1]: < 75 nM
- IC50 [2]: < 75 nM

SMILES: CN(C)CCC(=O)N[C@@H]1C[C@H](C(F)(F)F)CN(c2ccc(C#N)c3ncccc23)C1 [Example 65, N-[(3R,5S)-1-(8-cyanoquinolin-5-yl)-5-(trifluoromethyl)piperidin-3-yl]-3-(dimethylamino)propanamide]
- IC50 [1]: < 75 nM
- IC50 [2]: < 75 nM

SMILES: C[C@H]1C[C@@H](NC(=O)[C@@H](N)CC(N)=O)CN(c2ccc(C(F)(F)F)c3nccnc23)C1 [Example 127, (2S)-2-amino-N-[(3R,5S)-5-methyl-1-[8-(trifluoromethyl)quinoxalin-5-yl]piperidin-3-yl]butanediamide]
- IC50 [1]: < 75 nM
- IC50 [2]: 75 to 150 nM

SMILES: C[C@@H]1CN(c2cnc(C#N)c3ncccc23)C[C@H](CNC(=O)[C@@]2(F)CCCNC2)O1 (single isomer, unassigned) [Example 338]
- IC50 [1]: < 75 nM
- IC50 [2]: < 75 nM

SMILES: C[C@@H]1CN(c2cnc(C(F)(F)F)c3ncccc23)C[C@H](CO)O1 [Example 383, [(2R,6R)-6-Methyl-4-(8-trifluoromethyl-[1,7]naphthyridin-5-yl)-morpholin-2-yl]-methanol]
- IC50 [1]: > 150 nM
- IC50 [2]: > 150 nM

SMILES: N[C@H](CO)C(=O)N[C@@H]1C[C@H](C(F)(F)F)CN(c2ccc(C(F)(F)F)c3ncccc23)C1 [Example 172, (R)-2-Amino-3-hydroxy-N-[(3R,5S)-5-trifluoromethyl-1-(8-trifluoromethyl-quinolin-5-yl)-piperidin-3-yl]-propionamide]
- IC50 [1]: > 150 nM
- IC50 [2]: 75 to 150 nM

SMILES: C[C@H]1C[C@@H](NCCCS(N)(=O)=O)CN(c2ccc(C(F)(F)F)c3ncccc23)C1 [Example 39, 3-[(3R,5S)-5-Methyl-1-(8-trifluoromethyl-quinolin-5-yl)-piperidin-3-ylamino]-propane-1-sulfonic acid amide]
- IC50 [1]: < 75 nM
- IC50 [2]: < 75 nM

SMILES: CN(C)CCNC(=O)N[C@@H]1C[C@H](C(F)(F)F)CN(c2ccc(C#N)c3ncccc23)C1 [Example 143, 1-[(3R,5S)-1-(8-cyanoquinolin-5-yl)-5-(trifluoromethyl)piperidin-3-yl]-3-[2-(dimethylamino)ethyl]urea]
- IC50 [1]: 75 to 150 nM
- IC50 [2]: < 75 nM

Reference: patent publication US20210300940A1 (Merck Patent GmbH, priority 2018, published 2021)
